Reference: US20220298138A1, “ENZYME INHIBITORS” (KALVISTA PHARMACEUTICALS LIMITED, priority 2019, published 2022)

Assays:
[1] = target: T1, Human FXIa (Homo sapiens, UniProt P03951); test: FXIa inhibitory activity in vitro (fluorogenic substrate Z-Gly-Pro-Arg-AFC), selectivity; format: biochemical; settings: category scale, 25° C.
T1 construct: Human FXIa (Enzyme Research Laboratories) was incubated; purchased Enzyme Research Laboratories
Procedure: Determination of the % Inhibition for FXIa
Human FXIa (Enzyme Research Laboratories) was incubated at 25° C. with the fluorogenic substrate Z-Gly-Pro-Arg-AFC and various concentrations of the test compound. Residual enzyme activity (initial rate of reaction) was determined by measuring the change in fluorescence at 410 nm and the IC50 value for the test compound was determined.

[2] = target: T2, Human Factor XIIa (Homo sapiens, UniProt P00748); test: Factor XIIa inhibitory activity in vitro (fluorogenic substrate H-DPro-Phe-Arg-AFC); format: biochemical; settings: 25° C., class symbols, read-out: Human FXIIa IC50
T2 construct: purchased Enzyme Research Laboratories
T2 sequence (P00748 373-615 limits assumed): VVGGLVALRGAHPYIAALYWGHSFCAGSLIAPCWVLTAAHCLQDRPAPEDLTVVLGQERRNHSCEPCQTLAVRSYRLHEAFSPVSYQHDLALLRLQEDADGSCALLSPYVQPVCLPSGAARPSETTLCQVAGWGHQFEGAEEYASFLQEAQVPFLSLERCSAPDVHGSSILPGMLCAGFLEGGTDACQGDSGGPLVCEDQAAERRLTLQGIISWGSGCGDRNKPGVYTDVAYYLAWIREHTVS
Summary of the method: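 Enzyme incubated at 25° C with fluorogenic substrate H-DPro-Phe-Arg-AFC and a range of compound concentrations. Residual activity taken as initial reaction rate from […], giving IC50.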

T1 sequence (P03951 388-625 limits assumed): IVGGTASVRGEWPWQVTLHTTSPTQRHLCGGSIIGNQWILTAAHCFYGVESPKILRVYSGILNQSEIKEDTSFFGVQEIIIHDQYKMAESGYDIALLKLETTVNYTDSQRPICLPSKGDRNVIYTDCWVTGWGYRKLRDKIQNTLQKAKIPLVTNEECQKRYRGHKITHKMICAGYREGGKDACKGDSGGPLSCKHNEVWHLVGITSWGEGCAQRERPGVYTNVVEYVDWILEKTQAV
T1 sequence (P03951 19-387 partner limits assumed): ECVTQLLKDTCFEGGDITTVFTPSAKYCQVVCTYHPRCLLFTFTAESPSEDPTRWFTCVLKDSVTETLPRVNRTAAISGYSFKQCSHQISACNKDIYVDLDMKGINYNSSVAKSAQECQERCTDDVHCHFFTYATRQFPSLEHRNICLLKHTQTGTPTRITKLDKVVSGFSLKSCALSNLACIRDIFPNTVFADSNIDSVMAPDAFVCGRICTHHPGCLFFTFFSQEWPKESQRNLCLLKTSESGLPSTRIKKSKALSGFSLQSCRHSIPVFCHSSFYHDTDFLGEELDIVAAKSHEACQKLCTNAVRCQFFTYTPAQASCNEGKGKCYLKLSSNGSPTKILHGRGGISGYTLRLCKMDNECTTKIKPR

| Structure (SMILES) | IC50 [1] [µM] | IC50 [2] [µM] |
| --- | --- | --- |
| CC(C)N[C@H](CCCCN1CCCCC1)C(=O)N[C@@H](Cc1ccc2ccccc2c1)C(=O)NCc1ccc2c(N)nccc2c1 [Example 12.08] | 10 to 40 | 1 to 3 |
| COc1ccc(C[C@H](NC(=O)[C@@H](CCCCN2CCCCC2)NC(C)C)C(=O)NCc2ccc3c(N)nccc3c2)cc1 [Example 12.09] | > 40 | 1 to 3 |
| CC(C)N[C@H](CCCCN1CCCCC1)C(=O)N[C@@H](Cc1ccc(-c2ccccc2)cc1)C(=O)NCc1ccc2c(N)nccc2c1 [Example 12.10] | > 40 | 3 to 10 |
| Nc1nccc2cc(CNC(=O)[C@H](Cc3ccc(F)c(F)c3)NC(=O)CCCCCN3CCCCC3)ccc12 [Example 12.11] | > 40 | 0.28 to 1 |
| Nc1nccc2cc(CNC(=O)[C@@H]3CCN3C(=O)[C@H](N)CCc3ccccc3)ccc12 [Example 17.05] | 10 to 40 | 0.28 to 1 |
| Nc1nccc2cc(CNC(=O)C3CC4CCC3N(C(=O)[C@H](N)CCc3ccccc3)C4)ccc12 (stereo partly drawn) [Example 17.06] | 1 to 3 | 3 to 10 |
| Nc1nccc2cc(CNC(=O)[C@H]3CCC[C@@H]3NC(=O)[C@H](N)CCc3ccccc3)ccc12 [Example 17.07] | 3 to 10 | 10 to 40 |
| CN[C@H](CCc1ccccc1)C(=O)N1CC[C@H]1C(=O)NCc1ccc2c(N)nccc2c1 [Example 17.08] | > 40 | 0.28 to 1 |
| CC(C)N[C@H](CCc1ccccc1)C(=O)N1CC[C@H]1C(=O)NCc1ccc2c(N)nccc2c1 [Example 17.09, (2S)—N-[(1-aminoisoquinolin-6-yl)methyl]-1-[(2R)-2-(isopropylamino)-4-phenylbutanoyl]azetidine-2-carboxamide] | 10 to 40 | 0.1 to 0.279 |
| CC(C)N[C@H](CCCCN1CCCCC1)C(=O)N1CC[C@H]1C(=O)NCc1ccc2c(N)nccc2c1 [Example 17.10] | > 40 | 0.28 to 1 |
| CC(C)N[C@H](CCCN1CCCCC1)C(=O)N1CC[C@H]1C(=O)NCc1ccc2c(N)nccc2c1 [Example 17.11] | > 40 | 0.28 to 1 |
| CC(C)(NS(=O)(=O)c1ccc2ccccc2c1)C(=O)NCc1ccc2c(N)nccc2c1 [Example 18.105] | 10 to 40 | 10 to 40 |
| Nc1nccc2cc(CNC(=O)CNC(=O)c3ccc(N4CCOCC4)cc3)ccc12 [Example 18.106] | > 40 | 10 to 40 |
| Nc1nccc2cc(CNC(=O)CNC(=O)c3ccc4ccccc4n3)ccc12 [Example 18.107] | > 40 | 10 to 40 |
| Nc1nccc2cc(CNC(=O)CNC(=O)c3ccc(-c4ccncc4)cc3)ccc12 [Example 18.108] | > 40 | 10 to 40 |
| Nc1nccc2cc(CNC(=O)CNC(=O)C(CCc3ccccc3)N3CCNCC3)ccc12 (stereo not drawn) [Example 18.109] | > 40 | 10 to 40 |
| CC(C)N[C@H](CCc1ccccc1)C(=O)N1CCC[C@H]1C(=O)NCc1cnc2[nH]cc(Cl)c2c1 [Example 27.01] | > 40 | 0.28 to 1 |
| CC(C)N[C@H](CCCCN1CCCCC1)C(=O)N1CCC[C@H]1C(=O)NCc1cnc2[nH]cc(Cl)c2c1 [Example 27.02] | 3 to 10 | 0.1 to 0.279 |
| CC(C)N[C@H](CCCCN1CCCCC1)C(=O)N[C@@H](Cc1ccc(F)c(F)c1)C(=O)NCc1ccc2[nH]cc(Cl)c2c1 [Example 27.03] | 10 to 40 | < 0.03 |
| CC(C)N[C@H](CCCCN1CCCCC1)C(=O)N[C@@H](Cc1ccc(F)c(F)c1)C(=O)NCc1cnc2[nH]cc(Cl)c2c1 [Example 27.04] | > 40 | 0.03 to 0.1 |
| N[C@H](CCCCN1CCCCC1)C(=O)N[C@@H](Cc1ccc(F)c(F)c1)C(=O)NCc1cnc2[nH]cc(Cl)c2c1 [Example 27.06] | > 40 | 0.03 to 0.1 |

| Structure (SMILES) | IC50 [1] [µM] | IC50 [2] [µM] |
| --- | --- | --- |
| CC(C)N[C@H](CCCCN1CCCCC1)C(=O)N[C@@H](Cc1ccc(F)c(F)c1)C(=O)NCc1cccs1 [Example 27.07] | > 40 | 3 to 10 |
| CC(C)N[C@H](CCc1ccccc1)C(=O)N1CC[C@H]1C(=O)NCc1cnc2[nH]cc(Cl)c2c1 [Example 27.08] | > 40 | 0.28 to 1 |
| C[C@@H]1CCC[C@H](C)N1CC(=O)N1CCC(C(=O)NCc2ccc3c(N)nccc3c2)C1 (stereo partly drawn) [Example 32.10] | > 40 | 10 to 40 |
| C[C@@H]1CCC[C@H](C)N1CC(=O)N1CC[C@H]1C(=O)NCc1ccc2c(N)nccc2c1 [Example 32.11] | 10 to 40 | 3 to 10 |
| C[C@@H]1CCC[C@H](C)N1CC(=O)N1CC(C(=O)NCc2ccc3c(N)nccc3c2)C1 [Example 32.12] | > 40 | 10 to 40 |
| C[C@@H]1CCC[C@H](C)N1CC(=O)N1C[C@H]2[C@@H]([C@H]1C(=O)NCc1ccc3c(N)nccc3c1)C2(C)C [Example 32.13] | > 40 | 10 to 40 |
| C[C@@H]1CCC[C@H](C)N1CC(=O)N1CC2CC(C(=O)NCc3ccc4c(N)nccc4c3)C1C2 (stereo partly drawn) [Example 32.14] | > 40 | 10 to 40 |
| C[C@@H]1CCC[C@H](C)N1CC(=O)N[C@H]1CCC[C@@H]1C(=O)NCc1ccc2c(N)nccc2c1 [Example 32.15] | > 40 | 10 to 40 |
| C[C@@H]1CCC[C@H](C)N1CC(=O)NC1(C(=O)NCc2ccc3c(N)nccc3c2)CC1 [Example 39.09] | > 40 | 3 to 10 |
| C[C@@H]1CCC[C@H](C)N1CC(=O)NC1(C(=O)NCc2ccc3c(N)nccc3c2)CCC1 [Example 39.10] | 10 to 40 | 3 to 10 |
| C[C@@H]1CCC[C@H](C)N1CC(=O)NC1(C(=O)NCc2ccc3c(N)nccc3c2)CCOCC1 [Example 39.11] | > 40 | 10 to 40 |
| CC(=O)N1C[C@H](c2ccccc2)C[C@H]1C(=O)NCc1ccc2c(N)nccc2c1 [Example 43.01] | > 40 | 3 to 10 |
| C[C@@H]1CCC[C@H](C)N1CC(=O)N1C[C@H](c2ccccc2)C[C@H]1C(=O)NCc1ccc2c(N)nccc2c1 [Example 43.02] | 10 to 40 | 0.28 to 1 |
| Nc1nccc2cc(CNC(=O)[C@@H]3C[C@@H](c4ccccc4)CN3C(=O)[C@H](N)CCc3ccccc3)ccc12 [Example 43.03] | 10 to 40 | 0.28 to 1 |
| CC(C)(O)C(=O)N1C[C@H](c2ccccc2)C[C@H]1C(=O)NCc1ccc2c(N)nccc2c1 [Example 43.04] | 10 to 40 | 10 to 40 |
| Nc1nccc2cc(CNC(=O)[C@@H]3C[C@@H](c4ccccc4)CN3CC3CCNCC3)ccc12 [Example 43.05] | > 40 | 10 to 40 |
| Nc1nccc2cc(CNC(=O)[C@@H]3C[C@@H](c4ccccc4)CN3C(=O)[C@@H]3CCCN3)ccc12 [Example 43.06] | 10 to 40 | 1 to 3 |
| CNC(C)(C)C(=O)N1C[C@H](c2ccccc2)C[C@H]1C(=O)NCc1ccc2c(N)nccc2c1 [Example 43.07] | 10 to 40 | 3 to 10 |
| C[C@H](NC(=O)[C@H]1C[C@@H](c2ccccc2)CN1)C(=O)NCc1ccc2c(N)nccc2c1 [Example 45.01] | 3 to 10 | 0.28 to 1 |
| C[C@H](NC(=O)[C@@H]1C=C(c2ccccc2)CN1)C(=O)NCc1ccc2c(N)nccc2c1 [Example 45.02] | 3 to 10 | 3 to 10 |
| C[C@H](NC(=O)[C@H]1C[C@H](c2ccccc2)CN1)C(=O)NCc1ccc2c(N)nccc2c1 [Example 45.03] | 3 to 10 | 1 to 3 |
